The values below come from patent US12410323B2, “Potent antifouling agents albofungins target multiple fouling organisms” (The Hong Kong University of Science and Technology, priority 2021, dated 2025).

Series [1] is described as follows: Release rate of albofungin from coatings into artificial seawater (HPLC). It counts as physicochemical. To be noted: for highest release rate: first day, artificial seawater. Here is the method: Around 1 g of albofungin compound was isolated, purified and analyzed using HPLC to guarantee over 95% purity. Albofungin-based hydrolysable and degradable copolymer coating was prepared as follows: methyl methacrylate (MMA) and tributylsilyl methacrylate (TBSM) copolymer (PMSMO) was synthesized via radical ring-opening polymerization (Zhou et al., 2015). For 5 wt % of albofungin-based coating, 0.95 g of PMSMO and 0.05 g of albofungin were dissolved in xylene and tetrahydrofuran (v:v=1:2) and mixed vigorously at room temperature. The solution was then coated on the PVC panels (4×7 cm^2) and dried at room temperature for 7 days (Ma et al., 2017). Other coatings with different albofungin concentrations (10 and 15 wt %) were prepared using the same procedure. The coating with PMSMO only was used as a […]. Each concentration was prepared for three biological replicates. The field test was conducted from March to April 2021 in a fish farm at Yung Shue O, Hong Kong (22° 24′N, 114° 21′E), which was heavily fouled all year round. The PVC panel was submerged into seawater at a depth of 0.5 meters for 2 months, retrieved, washed with seawater, and photographed. The area covered by biofoulers was calculated by Image J (Fiji-2.2.0) (Schindelin, et al., 2012). One-way ANOVA was used to compare the albofungin-coated panels and the control panels. The release rate of albofungin under static conditions was determined by measuring the compound concentration with HPLC. Albofungin-based coatings were applied onto a PVC panel (20×75 mm^2) and submerged in artificial seawater (ASW). After 7 days, the panel was transferred to an individual container with 100 mL of ASW. After 24 h of immersion, 10 mL of the seawater was taken out of the container and extracted with the same volume of ethyl acetate three times. After drying under the SpeedVac vacuum concentrators, the extracts were dissolved in 100 μL of methanol and then subjected to HPLC using a reversed-phase system (Waters 2695) with a Phenomenex Luna C18 column connected to a UV detector at 300 nm. The unique UV absorption of albofungin and retention time were determined, with the amount being calculated from the established standard curves using peak areas plotted against known standard quantities.

Series [2] can be described thus: Anti-larval settlement bioassay, bryozoan. The format is in vivo, Bugula neritina. To be noted: Bugula neritina (bryozoan), larvae, in vivo; larval mortality, 3 h. Here is the method:
A. amphitrite adults were collected from Pak Sha Wan Pier, Hong Kong (22° 38′N, 114° 28′E) and after keeping in the dark for 24 h, a light source was used to stimulate the larval release. Within 1 h, the larvae were collected and cultured in 0.22 μm filtered seawater with a daily diet of Chaetoceros gracilis Schutt at 1×10^6 cells mL^−1 until their growth into cyprids, which were used for the anti-larval settlement bioassay. The bryozoan B. neritina adults were collected from a fish farm in Pak Shek Kok, Hong Kong (22° 43′N, 114° 20′E) and kept in flow-through seawater for no more than 7 days before use. The larvae were released within 30 minutes before the bioassay as described (Xu et al., 2010). The bioassay was conducted in a 24-well polystyrene tissue culture plate with 15-20 larvae in each well. 0.1% of DMSO in filtered seawater (FSW), and 0.625, 1.25, 2.5, 5, 10, 20, and 40 μg mL^−1 albofungin concentrations were tested in triplicate. In each well, 1 mL of FSW containing 15-20 larvae and 1 mL of albofungin solution of different concentrations. The plate was kept for 48 h at 25° C. (bryozoan B. neritina larvae were kept for 3 h). The wells with 0.1% of DMSO in FSW served as a negative control, and butenolide was used as a positive control. The number of attached, swimming, and dead larvae were counted under an Olympus optical microscope (Olympus Corporation, Tokyo, Japan). The settlement rate was calculated as the ratio of settled larvae to the total number of larvae in each well, and the death rate was calculated as the ratio of dead or missing larvae to the total number of larvae in each well. Half maximal effective concentration (EC50) and half lethal concentration (LC50) were determined for each compound, and the ratio of LC50/EC50 was used to evaluate the toxicity of the antifoulant. Experiments were performed in triplicate. Data were analyzed by one-way ANOVA to detect significant differences in the larval settlement, and SD was calculated by GraphPad Prism 9.

What is called LC50 is the concentration lethal to half of the exposed cells or organisms. On to `CO[C@@H]1CC[C@H](O)c2c1oc1c3c4c(c(O)c1c2=O)-c1c(cc2cc(C)n(N)c(=O)c2c1O)C[C@H]4OCO3` [Albofungin (1), albofungin], for which the results for the highest release rate in series [1] (5 wt % albofungin coating), in series [1] (10 wt % albofungin coating) and in series [1] (15 wt % albofungin coating) were 0.86 μg day-1 cm^−2, 1.1 μg day-1 cm^−2 and 1.4 μg day-1 cm^−2, respectively. The “release rate decreased to” value in series [1] (15, 10 and 5 wt % coatings, time-dependent, within 35 days) is “approximately 0.08 μg day-1 cm^−2”. The molecule also showed a 50% lethal concentration (LC50) at 3 h in series [2] greater than 100 µg/mL.
